Key:
Assay type in all cases: binding
[1] = biological target: T1, CkGE15A (GE15A, glucuronoyl esterase domain of CkXyn10C-GE15A) (Caldicellulosiruptor acetigenus, UniProt E4S6E9); test: DSF (Tycho NT.[…]); conditions: 10000 µM; 0.5 mg/mL protein, 50 mM MOPS pH 7.2; second inflection point; no-ligand control Ti2 81.3 ± 0.37 °C
T1 construct: gene Calkr_2245; isolated CE15 domain (entire GE domain Thr1341-Arg1685 seen in structure); E. coli BL21(DE3), pET28a-TEVc; full-length protein 2159 residues

[2] = biological target: T2, CBM9.3 (CkCBM9.3, third CBM9 domain of CkXyn10C-GE15A) (Caldicellulosiruptor acetigenus, UniProt E4S6E9); test: X-ray crystallography (soak […], […] min); conditions: crystal at pH 4.2; aromatic clamp Tyr89/Trp191
T2 construct: gene Calkr_2245; isolated CBM9.3 domain (Lys1072-Leu1252) plus C-terminal linker Lys1253-Pro1265; N-terminal His6 tag and TEV site (not seen in density); E. coli BL21(DE3), pET28a-TEVc; full-length protein 2159 residues

[3] = biological target: T2, CBM9.3 (CkCBM9.3, third CBM9 domain of CkXyn10C-GE15A); test: DSF (Tycho NT.[…]); conditions: 100000 µM; 0.5 mg/mL protein, 50 mM Tris pH 8, 100 mM NaCl; 100 mM ligand; no-ligand control Ti 61.0 ± 0.88 °C

T2 sequence (E4S6E9 entry or part of it): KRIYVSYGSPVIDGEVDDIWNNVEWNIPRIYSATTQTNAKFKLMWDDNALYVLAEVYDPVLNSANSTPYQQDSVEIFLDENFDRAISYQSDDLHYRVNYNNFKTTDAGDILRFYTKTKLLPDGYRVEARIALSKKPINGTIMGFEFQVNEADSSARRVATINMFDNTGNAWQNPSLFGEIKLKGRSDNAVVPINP
T1 sequence (E4S6E9 entry or part of it): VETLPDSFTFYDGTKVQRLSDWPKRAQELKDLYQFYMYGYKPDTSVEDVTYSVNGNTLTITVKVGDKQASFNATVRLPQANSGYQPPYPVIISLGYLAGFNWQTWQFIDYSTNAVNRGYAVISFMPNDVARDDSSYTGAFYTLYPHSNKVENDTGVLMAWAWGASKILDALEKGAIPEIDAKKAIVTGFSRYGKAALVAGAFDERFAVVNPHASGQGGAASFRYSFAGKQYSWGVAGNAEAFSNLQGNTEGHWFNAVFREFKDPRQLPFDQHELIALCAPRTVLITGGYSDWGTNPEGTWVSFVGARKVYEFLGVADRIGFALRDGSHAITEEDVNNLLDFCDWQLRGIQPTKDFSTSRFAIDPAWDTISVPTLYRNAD

With O=C(OCc1ccccc1)[C@H]1OC(O)[C@H](O)[C@@H](O)[C@@H]1O (stereo partly shown) [benzylglucuronate] the “Ti2 (°C) ± SD” value [1] was 79.3 ± 0.49 °C.

With aldopentauronic acid the “Ti2 (°C) ± SD” value [1] was 79.2 ± 0.49 °C.

In the case of OC[C@H]1OC(O)[C@H](O)[C@@H](O)[C@@H]1O (stereo partly shown) [glucose], the “X-ray crystallography (soak 500 mM, 5 min)” value [2] is reported as “we obtained structures with bound glucose and cellobiose and also with cellotriose” and the “Ti (°C) ± SD” value [3] is reported as 66.7 ± 0.195 °C.
